Test results: US20060264362A1, “Method of modulating smooth muscle cell functioning by modulating sphingosine kinase mediated signalling” (Medvet Science Pty. Ltd., priority 2003, published 2006)
“Also recorded” adds a separate entry of the source.

Assays:
resistance arteries [1] = assay: SNP (NO)-induced dilations in preconstricted resistance arteries; assay type: cell-based, hamsters; details: for preconstriction level (diameter): 1 μmol/L S1P or 0.3 μmol/L NE
Text: (§1) The care of the animals and the experimental procedures were in accordance with German animal protection laws. The preparation of the vessels and the technique of calcium (fura 2) and diameter measurements were previously described (Bolz et al., 1999, supra; Bolz S S, Fisslthaler B, Pieperhoff S et al., FASEB J. 2000;14:255-260). Briefly, RA (maximal outer diameter 180-250 μm) from gracilis muscle of female hamsters were cannulated with micropipettes and studied at 45 mmHg transmural pressure. Fura 2 was alternatingly excited at 340 or 380 nm. The ratio F340nm/F380nm at 510 nm was calculated after subtraction of the background fluorescence (obtained after fura 2-quenching with 8 mmol/L MnCl2). Diameters were simultaneously recorded by videomicroscopy at wavelengths>610 nm to avoid interference with fura 2-measurements.
Additionally, dose-response curves for SNP were obtained in arteries preconstricted by 0.3 μmmol/L NE under control conditions, in the presence of the Rho kinase inhibitor Y27632 (1 μmol/L) or in N19RhoA-transfected arteries.
(§2) Dilations are expressed as “% of maximum dilation”=[(diaVD−diaNE)/(diamax−diaNE)]×100, with diaVD and diaNE representing steady state diameters 2 min after administration of […] and diamax being the maximal diameter obtained in Ca^2+-free 1 mmol/L EGTA-containing MOPS buffer.

[2] = system: depolarized resistance arteries; assay: Apparent Ca2+-sensitivity of depolarized resistance arteries (120 mmol/L K+, Ca2+ex 0-3 mmol/L); assay type: cell-based, hamsters; details: for effect on NO (SNP)-induced Ca^2+-desensitization: 10 μmol/L SNP, ODQ 1 μmol/L, calyculin A 120 nmol/L, S1P 10 nmol/L or RhoA^Ala-188 transfection
Text: as §1
To transfect plasmids containing C3 transferase or the respective mutated RhoA sequences (N19RhoA, RhoA^Ala-188) into VSMCs, arteries were incubated for 18-21 h in a artery culture system (Bolz et al., 2000, supra) with culture medium containing antibiotics, the transfectant Effectene® (16 μl/ml) and 5 μg of the respective plasmid. Unspecific effects of the transfection procedure were assessed by comparing vascular responses of non-transfected RA and arteries transfected with green fluorescent protein (GFP).
The apparent Ca^2+-sensitivity of the arteries was assessed by stepwise increasing the extracellular Ca^2+ concentration (Ca^2+, 0-3 mmol/L) around the arteries kept in depolarizing solution (120 mmol/L K^+). Depolarization-dependent opening of voltage-gated calcium channels allowed increases in Ca^2+ ex to be reproducibly followed by increases in VSMC [Ca^2+]i (Bolz et al., 2000, supra). The Ca^2+-sensitivity was assessed under control conditions, in the presence of SNP and in the combined presence of SNP and the respective modulating substance or protein (ODQ, calyculin A, S1P, RhoA^Ala-188).

resistance arteries [3] = assay: S1P-induced vasoconstriction of resistance arteries; assay type: cell-based, hamsters; details: for effect on S1P-induced constrictions: S1P <1 μmol/L
Text: as §1
The technique to transfect intact C3 transferase protein using Trans LT was previously described (Bolz et al., 2000, supra).
Changes in diameter and [Ca^2+]i were continuously recorded in 70 vessels from 41 animals. All vessels studied developed spontaneous tone (9.6±1% of maximal diameter). The viability of each vessel was assessed by its constriction to NE (0.3 μmol/L) and a dilation>80% in response to 1 μmol/L ACh.

[4] = system: isolated resistance arteries; assay: Pressure-induced myogenic response (reversal of initial distension), 45 to 110 mmHg; assay type: cell-based, syrian hamsters
Text: The preparation of the vessels, the technique of calcium and diameter measurements (Bolz, S. S., de Wit, C., Pohl, U. (1999) Br J Pharmacol 128:124-134) as well as the artery culture and transfection method (Bolz, S. S., Pieperhoff, S., de Wit, C. et al. (2000) Am J Physiol Heart Circ Physiol 279:H1434-H1439) were previously described in more detail. Briefly, segments of small resistance arteries (maximal diameter 213±3 μm, n+116) were excised from the gracilis muscle of female syrian hamsters, cannulated with glass micropipettes and perfused with culture medium at a transmural pressure of 45 mmHg. for selective transfection of smooth muscle cells, 60 μl/mL transfection reagent (Effectene, Qiagen, Germany) and 5 μg of the respective DNA plasmid were added to the organ bath for 20-22 h.
(§3) After termination of the culture period resistance arteries were washed with MOPS-buffered salt solution and transferred to an inverted microscope. Incubation with fura 2 (2 h at 37° C.) from the abluminal side allowed selective determination of smooth muscle Ca^2+ within the vascular wall. Simultaneous measurements of smooth muscle intracellular Ca^2+ and diameter were performed as described previously (Bolz, S. S., de Wit, C., Pohl, U. (1999) supra). In all 116 arteries included in the study, smooth muscle and endothelial function was assessed by testing all resistance arteries for their constrictor response to norepinephrine (NE 0.3 μmol/L) and their dilator response to acetylcholine (ACh, 1 μmol/L). […] Measurements were performed at 37° C.
Myogenic responses were described as % reversal of initial distension (RID) calculated as RID=((diadistended−diatime)/(diadistended−diarest))×100, with diatime being the actual diameter of the artery at a given time point after increase in transmural pressure.
(§4) To compare Ca^2+i and diameter changes over time after application of pressure, a non-linear regression analysis was employed. Briefly, the goodness of the fit to a Gompertz function was calculated for every individual curve at first and then for pooled data sets.

[5] = system: isolated resistance arteries; assay: Resting tone in isolated, transfected resistance arteries; assay type: cell-based, syrian hamsters; details: 10 nmol/L
Text: The preparation of the vessels, the technique of calcium and diameter measurements (Bolz, S. S., de Wit, C., Pohl, U. (1999) Br J Pharmacol 128:124-134) as well as the artery culture and transfection method (Bolz, S. S., Pieperhoff, S., de Wit, C. et al. (2000) Am J Physiol Heart Circ Physiol 279:H1434-H1439) were previously described in more detail. […]
After termination of the culture period resistance arteries were washed with MOPS-buffered salt solution and transferred to an inverted microscope. […] In all 116 arteries included in the study, smooth muscle and endothelial function was assessed by testing all resistance arteries for their constrictor response to norepinephrine (NE 0.3 μmol/L) and their dilator response to acetylcholine (ACh, 1 μmol/L). […]
Tone was calculated as % of maximal diameter [tone(% of diamax)=((diamax−diarest)/diamax)×100] that was determined at the end of every experiment in Ca^2+-free solution under stimulation with 1 μmol/L ACh.

RhoA = RhoA translocation (immunostaining); assay type: cell-based, hamsters; details: 10 nmol/L S1P, 2 min
Protocol: (§5) Arteries were fixed with 3.7% formaldehyde, permeabilized with 0.3% Triton X-100, blocked with 1% BSA and incubated with the primary antibody (MLCP: rabbit anti-mouse, 1:200, Covance; RhoA: mouse monoclonal, 1:200, Santa Cruz Biotechnology). FITC-labelled goat anti-rabbit or donkey anti-mouse (1:200, each) were used as secondary antibodies. Images were obtained using a Zeiss LSM410 confocal microscope equipped with a Kr/Ar laser and a 40×/1.2 W water immersion objective.

MYPT1 = assay: Translocation of MLCP myosin-binding subunit MYPT1 (immunofluorescence, western blot); assay type: cell-based, hamster
Protocol: as §5
Tissue samples of hamster aorta were quick-frozen in liquid nitrogen and homogenized. Cytosolic and particulate fractions were separated by centrifugation of the homogenate at 100.000 g (Beckman Coulter, Optima Max-E). Pellets were resuspended in lysis buffer plus 1% Triton-X 100. Protein-matched samples were electrophoresed by SDS-PAGE (7%), transferred to nitrocellulose membranes (Amersham), and subjected to immunostaining using a polyclonal primary antibody (rabbit anti-mouse, 1:500). An HRP-labelled secondary antibody (goat anti-rabbit, 1:10000, Santa Cruz) was used with ECLplus (Amersham) to visualize the signal.

smooth muscle Ca^2+ = assay: Pressure-induced increases in smooth muscle Ca2+ (fura 2); assay type: cell-based, syrian hamsters; details: inhibition of RhoA/Rho kinase pathway
Protocol: as §3, §4

resistance arteries [6] = assay: Ca2+-dependent dilations induced by ACh or NS1619; assay type: cell-based, hamsters
Text: as §1, §2

[7] = S1P 0.001 μmol/L plus named inhibitor
[8] = S1P 0.01 μmol/L plus named inhibitor
[9] = S1P 0.1 μmol/L plus named inhibitor
[10] = S1P 1 μmol/L plus named inhibitor

Compound: NC[C@H](O)c1ccc(O)c(O)c1 [NE, Norepinephrine]
- preconstriction level (diameter) (resistance arteries [1]): 128±2 μm

Compound: O=c1onc2cnc3ccccc3n12 [ODQ]
- effect on NO (SNP)-induced Ca^2+-desensitization [2]: blocked; also recorded: completely reversed

Compound: CCCCCCCCCCCCC/C=C/[C@@H](O)[C@@H](N)COP(=O)(O)O [S1P, sphingosine-1-phosphate]
- S1P-induced vasoconstriction, Control (resistance arteries [3]; S1P 0.001 μmol/L): −0.2 ± 0.4 % of diamax
- S1P-induced vasoconstriction, Control (resistance arteries [3]; S1P 0.01 μmol/L): −7.7 ± 2.4 % of diamax
- S1P-induced vasoconstriction, Control (resistance arteries [3]; S1P 0.1 μmol/L): −27.0 ± 3.4 % of diamax
- S1P-induced vasoconstriction, Control (resistance arteries [3]; S1P 1 μmol/L): −45.0 ± 2.0 % of diamax
- preconstriction level (diameter) (resistance arteries [1]): 130±10 μm
- reduction of SNP-induced dilations after preconstriction with S1P vs NE (resistance arteries [1]; SNP 1 μmol/L, preconstriction 1 μmol/L S1P vs 0.3 μmol/L NE): 64±8%
- myogenic response with exogenous S1P ([4]; 10 nmol/L S1P): 144±11 % RID
- constriction induced by S1P itself [5]: no significant constrictions
- RhoA localisation after stimulation (RhoA): translocated to the membrane; also recorded: translocation to the membrane
- translocation of MYPT1 to the smooth muscle cell plasmamembrane (MYPT1; S1P, 2 min): induced a translocation
- effect on NO (SNP)-induced Ca^2+-desensitization [2]: abolished; also recorded: blocked
- effect of S1P per se on Ca^2+-sensitivity ([2]; S1P 10 nmol/L, Ca^2+ex 0.25-0.75 mmol/L): increased the Ca^2+-sensitivity only in a medium concentration range

Compound: C[C@@H](N)[C@H]1CC[C@H](C(=O)Nc2ccncc2)CC1 [Y27632]
- S1P-induced vasoconstriction after inhibition of RhoA or Rho kinase (resistance arteries [3]; [7]): 0.1 ± 0.4 % of diamax
- S1P-induced vasoconstriction after inhibition of RhoA or Rho kinase (resistance arteries [3]; [8]): −0.4 ± 0.2 % of diamax
- S1P-induced vasoconstriction after inhibition of RhoA or Rho kinase (resistance arteries [3]; [9]): −3.4 ± 1.8 % of diamax
- S1P-induced vasoconstriction after inhibition of RhoA or Rho kinase (resistance arteries [3]; [10]): −20.0 ± 7.2 % of diamax
- effect on S1P-induced constrictions (resistance arteries [3]): abolished
- effect on NO-induced dilations (resistance arteries [1]; NE 0.3 μmol/L-preconstricted, Y27632 1 μmol/L or N19RhoA overexpression): significantly augmented
- diameter at NE-induced tone (resistance arteries [1]; NE 0.3 μmol/L, Y27632 1 μmol/L): 115±5 μm
- resting diameter (resistance arteries [1]; Y27632 1 μmol/L): 195±18 μm
- S1P-augmented myogenic response after blocker ([4]; 10 nmol/L S1P plus Rho kinase inhibitor): 3±1 % RID
- myogenic response, reversal of initial distension (RID) ([4]; pressure 45 to 110 mmHg, steady state after 4 min): 1±2 % RID
- pressure-induced increases in Ca^2+ (smooth muscle Ca^2+): 19±3%
- S1P-induced MYPT1 translocation after RhoA/Rho kinase inhibition (MYPT1; N19RhoA-transfected or Y27632 (1 μmol/L)-pretreated arteries): absent

Compound: COC[C@@H]([C@H](O)[C@H](O)C(=O)NCC[C@H](C)c1nc(/C=C/C[C@@H]2O[C@]3(C[C@@H](O)[C@@H]2C)O[C@H]([C@H](C[C@H](O)[C@H](C)[C@H](O)[C@H](C)/C=C(C)/C(C)=C/C=C/C(C)=C\C#N)OC)[C@H](OP(=O)(O)O)C3(C)C)co1)N(C)C [calyculin A]
- effect on NO (SNP)-induced Ca^2+-desensitization [2]: reversed
- effect on NO (SNP)-induced Ca^2+-desensitization ([2]; listed as Calyculin A): almost abolished

Compound: C3 transferase
- S1P-induced vasoconstriction after inhibition of RhoA or Rho kinase (resistance arteries [3]; [7]): 0.7 ± 0.3 % of diamax
- S1P-induced vasoconstriction after inhibition of RhoA or Rho kinase (resistance arteries [3]; [8]): 0.5 ± 0.6 % of diamax
- S1P-induced vasoconstriction after inhibition of RhoA or Rho kinase (resistance arteries [3]; [9]): −2.8 ± 0.7 % of diamax
- S1P-induced vasoconstriction after inhibition of RhoA or Rho kinase (resistance arteries [3]; [10]): −18.1 ± 2.9 % of diamax
- effect on S1P-induced constrictions (resistance arteries [3]): abolished
- Ca^2+/diameter curve (Ca^2+-sensitivity of the contractile apparatus) ([2]; C3 transferase-transfected arteries): significantly shifted to the right; also recorded: significantly desensitized

Compound: charybdotoxin
- effect on dilations by ACh (+L-NA/indomethacin) and NS1619 (resistance arteries [6]): abolished
